{"source": "patent US11559498B2", "about": "“Compositions and methods for in vivo lung and blood SNO repletion” (UNIVERSITY HOSPITALS CLEVELAND MEDICAL CENTER, priority 2020, dated 2023)", "key": {"[1]": {"test_system": "airway hyper-responsiveness", "assay": "Mouse airway hyper-responsiveness following hyperoxia", "format": "in vivo", "conditions": "hyperoxia 60% oxygen for 21 days, FIG. 6"}, "GSNO levels in the lungs": {"test_system": "GSNO levels in the lungs", "assay": "GSNO levels in the lungs after inhalation of ENO", "format": "in vivo", "conditions": "FIG. 1A", "description": "(§1) 1. Mice are either placed in chambers where ambient oxygen and ENO levels (1-100 ppm) are controlled, or mice are ventilated as in 2. below.\n(§2) 2. Large animals (pigs/dogs) are ventilated. ENO was mixed into the ventilation circuit using a custom-made gas-blending device (1-100 ppm). One hundred ppm ENO was selected as the maximum dose based on the amounts of metHb (<5%).\n(§3) 3. Humans Each subject was fitted with an on-demand nonrebreather mask to regulate oxygen (FiO2) and ENO delivery. ENO was blended at 1-100 ppm."}, "SNO-Hb": {"test_system": "SNO-Hb", "assay": "SNO-Hb levels in the blood of humans after inhalation of ENO", "format": "in vivo", "conditions": "FIG. 1B", "description": "as §3\n(§4) Photolysis-chemiluminescence was used to quantify RBC SNO-Hb levels before and during ENO exposure. Blood was obtained through arterial lines and venipuncture. Method of sample preparation and measurement is as described in Hausladen (ref: Hausladen A et al. Assessment of nitric oxide signals by triiodide chemiluminescence. Proc. Natl. Acad. Sci. U.S.A 104, 2157-2162 (2007))."}, "SNO-Hb and muscle StO2": {"test_system": "SNO-Hb and muscle StO2", "assay": "Hypoxic humans dosed with ENO: muscle oxygenation and SNO-Hb", "format": "in vivo", "conditions": "at study completion, FiO2 fixed at 0.12, FIG. 2", "description": "as §3, §4"}, "lung inflammation (BALF)": {"test_system": "lung inflammation (BALF)", "assay": "Hyperoxic injury-induced lung inflammation in mice", "format": "in vivo", "description": "as §1\nBronchoalveolar lavage fluid (BAL), cell and protein content, differential cell analysis, lung fixation and histological sectioning, were performed as previously described (Groves, Am. J. Respir Cell Mol. Biol. 47, 776-783 (2012); Lien Van Hoecke J Vis Exp. 2017; (123): 55398))."}, "isolated human kidneys": {"test_system": "isolated human kidneys", "assay": "Isolated human kidneys treated with ENO"}, "[2]": {"assay": "metHb during ventilation with ENO", "format": "in vivo, pigs/dogs", "conditions": "100 ppm ENO (maximum dose), ventilated large animals", "description": "as §2"}, "[3]": {"conditions": "cited from earlier work"}, "lung injury": {"test_system": "lung injury", "assay": "Rat ischemia/reperfusion (IR) preparation, lung injury", "format": "in vivo"}, "[4]": {"test_system": "porcine circovirus type 2 (PCV2)", "assay": "PCV2 infection and replication", "format": "cell-based"}}, "data": [{"smiles": "Cc1cc(C(N)=O)ccc1-n1c(CCC(=O)O)ccc1-c1ccc(-n2ccnc2)cc1", "note": "[N6022]", "values": [{"measurement": "airway hyper-responsiveness", "setting": "[1]; ip administration", "result": "attenuated"}]}, {"smiles": "CCON=O", "note": "[ENO, ethyl nitrite]", "values": [{"measurement": "GSNO levels in the lungs over inhaled NO", "setting": "GSNO levels in the lungs; inhalation of ENO compared with inhaled NO", "result": "several fold"}, {"measurement": "GSNO levels in the lungs", "setting": "GSNO levels in the lungs; inhalation of ENO", "result": "significantly increases"}, {"measurement": "SNO-Hb levels in the blood", "setting": "SNO-Hb", "result": "significantly increases"}, {"measurement": "SNO-Hb levels", "setting": "SNO-Hb and muscle StO2", "result": "doubled"}, {"measurement": "muscle StO2 (near infrared spectroscopy)", "setting": "SNO-Hb and muscle StO2", "result": "at normoxic (prehypoxic) levels"}, {"measurement": "lung (BALF) leukocyte concentrations", "setting": "lung inflammation (BALF); ENO for 8 days, FIG. 3A", "result": "decreased"}, {"measurement": "lung (BALF) neutrophil concentrations", "setting": "lung inflammation (BALF); ENO for 8 days, FIG. 3A", "result": "decreased"}, {"measurement": "accumulation of cytokine-induced neutrophil chemoattractant-1", "setting": "lung inflammation (BALF); FIG. 3B", "result": "attenuated"}, {"measurement": "expression of cytokine-induced neutrophil chemoattractant-1", "setting": "lung inflammation (BALF); FIG. 3C", "result": "attenuated"}, {"measurement": "tissue SNO levels", "setting": "isolated human kidneys; FIG. 4A", "result": "increased"}, {"measurement": "release of IL-10", "setting": "isolated human kidneys; FIG. 4B", "result": "increased"}, {"measurement": "level of IL-10", "setting": "isolated human kidneys; FIG. 4C", "result": "increased"}, {"measurement": "amounts of metHb", "setting": "[2]", "result": "< 5", "unit": "%"}]}, {"smiles": "CC(=O)N[C@@H](CS)C(=O)O", "note": "[N-acetylcysteine]", "values": [{"measurement": "solubility in chloroform and ether", "setting": "[3]; chloroform and ether", "result": "practically insoluble"}, {"measurement": "solubility in water and alcohol", "setting": "[3]; water and alcohol", "result": "soluble"}]}, {"smiles": "N[C@@H](CCC(=O)N[C@@H](CSN=O)C(=O)NCC(=O)O)C(=O)O", "note": "[GSNO]", "values": [{"measurement": "lung injury", "setting": "lung injury; FIG. 5A", "result": "significantly reduced"}, {"measurement": "expression of iNOS", "setting": "lung injury; FIG. 5B", "result": "significantly reduced"}, {"measurement": "expression of NF-kappaB", "setting": "lung injury; FIG. 5C", "result": "significantly reduced"}, {"measurement": "airway hyper-responsiveness", "setting": "[1]; inhalation", "result": "attenuated"}, {"measurement": "infection of PCV2", "setting": "[4]; FIG. 7A", "result": "significantly reduces"}, {"measurement": "replication of PCV2", "setting": "[4]; FIG. 7B", "result": "significantly reduces"}]}]}
